For 19 molecules, TGI results are on record in PubChem BioAssay (NCI).

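Dose response: 5 concentrations. Exposure: 48 h. Format: 96-well plates. Endpoint: linear interpolation; highest concentration if not reached. TGI marks complete inhibition of growth.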 Where a SMILES comes first, the peptide text is derived from it. The star is where a group is joined. Boc = CC(C)(C)OC(=O)*

In one assay the test system is NCI-H460 lung. The experiment in a line: NCI anticancer screen, dose series, 48 h.
Turning to `O=C1NC(=O)C2C(=O)NC(=O)C1C2c1c(Cl)cccc1Cl` (stereo not drawn), the TGI is > 58.2 µM.
As for `O=C1OC(Cc2ccccc2)(N2CCCC2=O)C1c1ccccc1` (stereo not drawn), the TGI is > 100 µM.

The next assay has as its system A549 NSCLC. The experiment in a line: NCI anticancer screen, dose series, 48 h.
For the molecule `COc1ccc2c(c1)C(=O)C1CC(=O)CCC21` (stereo not drawn), the TGI was > 100 µM.
Same read-out and setting: then `COc1cccc(NC(=O)CSc2nnc(-c3ccc(NC(C)=O)cc3)o2)c1`, with > 100 µM; and `Clc1ccc(Nc2nc3ccccc3nc2-c2cccs2)cc1Cl`, with > 100 µM.
Take `CCn1c2ccccc2c2ccc3c(c21)C(=O)C=CC3=O`: the TGI is > 100 µM.
Consider `O=c1nc(NC2CCCCO2)ccn1CCO` (stereo not drawn), for which the TGI was > 100 µM.
For the molecule `COC(=O)c1onc(-c2c(OC)cc(OC)cc2OC)c1C(=O)OC`, the TGI is > 100 µM.
Still for that read-out and setting: the figure for `CCCP1(=O)C=C(C)C(=C(Cl)Cl)C(C)=C1` (stereo not drawn) is > 100 µM; for `CCCCCCCOc1ccc(/C=C\c2cc[n+](CCCCCCCC[n+]3ccc(/C=C\c4ccc(OCCCCCCC)cc4)cc3)cc2)cc1` it is 41.5 µM.
As to `CC(C)(C)OC(=O)NC(Cc1ccc(O)cc1)C(=O)N1CCCC1C(=O)O` (stereo not drawn) (Boc-Tyr-Pro-OH; configuration not given here), the TGI is > 100 µM.
In the case of `O=C(O)c1ccc(C2COc3ccc(Cl)cc3C2)cc1` (stereo not drawn), the TGI was > 100 µM.
On the same count and under the same terms, then `CC(=O)NC(CCCNC(=O)N(CCCl)N=O)C(=O)NCc1ccccc1` (stereo not drawn), with > 100 µM; and `c1ccc2c(c1)C1CCCCCC21N1CCOCC1` (stereo not drawn), with > 100 µM.
In the case of `COc1cccc(OC)c1C(=O)OCc1ccccc1`, the TGI is > 100 µM.
The same measure, in the same setting: the figure for `O=C(CSc1nnc(Cc2ccccc2)o1)Nc1ccccc1` is > 100 µM.
Same read-out and setting: the figure for `Cc1ccc(/C=C/C(=O)C(C)(C)CN2CCCCC2)cc1` is 33.1 µM; for `CC(=O)CN(Cc1cc(C)c2c(c1)c1ccccc1n2Cc1ccccc1)S(=O)(=O)c1ccc(C)cc1` it is > 100 µM.
Turning to `O=C1NC(=O)C2C(=O)NC(=O)C1C2c1c(Cl)cccc1Cl` (stereo not drawn), the TGI was > 100 µM.
The same measure, in the same setting: then `O=C1OC(Cc2ccccc2)(N2CCCC2=O)C1c1ccccc1` (stereo not drawn), with > 100 µM; and `CC(=O)C(CN(CC(C)C)CC(C)C)C(c1ccccc1)c1c(O)c2ccccc2oc1=O` (stereo not drawn), with > 100 µM.

The next assay relates to K-562 leukemia. Nature of the assay: NCI anticancer screen, dose series, 48 h.
For the molecule `COc1ccc2c(c1)C(=O)C1CC(=O)CCC21` (stereo not drawn), the TGI was > 100 µM.
Same read-out and setting: the figure for `COc1cccc(NC(=O)CSc2nnc(-c3ccc(NC(C)=O)cc3)o2)c1` is > 100 µM; for `CCn1c2ccccc2c2ccc3c(c21)C(=O)C=CC3=O` it is 9.19 µM.
Turning to `O=c1nc(NC2CCCCO2)ccn1CCO` (stereo not drawn), the TGI was > 100 µM.
On the same count and under the same terms, the figure for `COC(=O)c1onc(-c2c(OC)cc(OC)cc2OC)c1C(=O)OC` is > 100 µM.
In the case of `CCCP1(=O)C=C(C)C(=C(Cl)Cl)C(C)=C1` (stereo not drawn), the TGI was > 100 µM.
For the molecule `CC(C)(C)OC(=O)NC(Cc1ccc(O)cc1)C(=O)N1CCCC1C(=O)O` (stereo not drawn) (Boc-Tyr-Pro-OH; configuration not given here), the TGI is > 100 µM.
Still for that read-out and setting: then `O=C(O)c1ccc(C2COc3ccc(Cl)cc3C2)cc1` (stereo not drawn), with > 100 µM; and `CC(=O)NC(CCCNC(=O)N(CCCl)N=O)C(=O)NCc1ccccc1` (stereo not drawn), with > 100 µM; and `c1ccc2c(c1)C1CCCCCC21N1CCOCC1` (stereo not drawn), with > 100 µM.
Regarding `COc1cccc(OC)c1C(=O)OCc1ccccc1`, the TGI was > 100 µM.
Same read-out and setting: then `O=C(CSc1nnc(Cc2ccccc2)o1)Nc1ccccc1`, with > 100 µM; and `Cc1ccc(/C=C/C(=O)C(C)(C)CN2CCCCC2)cc1`, with 12 µM.
The same measure, in the same setting: the figure for `CC(=O)CN(Cc1cc(C)c2c(c1)c1ccccc1n2Cc1ccccc1)S(=O)(=O)c1ccc(C)cc1` is > 100 µM; for `O=C1NC(=O)C2C(=O)NC(=O)C1C2c1c(Cl)cccc1Cl` (stereo not drawn) it is > 71.7 µM; for `O=C1OC(Cc2ccccc2)(N2CCCC2=O)C1c1ccccc1` (stereo not drawn) it is > 100 µM.

In the next assay the test system is U251 CNS. Nature of the assay: NCI anticancer screen, dose series, 48 h.
Turning to `COc1ccc2c(c1)C(=O)C1CC(=O)CCC21` (stereo not drawn), the TGI is > 100 µM.
Same read-out and setting: the figure for `COc1cccc(NC(=O)CSc2nnc(-c3ccc(NC(C)=O)cc3)o2)c1` is > 100 µM; for `CCn1c2ccccc2c2ccc3c(c21)C(=O)C=CC3=O` it is 31.7 µM.
On the same count and under the same terms, then `O=c1nc(NC2CCCCO2)ccn1CCO` (stereo not drawn), with > 100 µM; and `COC(=O)c1onc(-c2c(OC)cc(OC)cc2OC)c1C(=O)OC`, with > 100 µM.
In the case of `CCCP1(=O)C=C(C)C(=C(Cl)Cl)C(C)=C1` (stereo not drawn), the TGI was > 100 µM.
On to `CCCCCCCOc1ccc(/C=C\c2cc[n+](CCCCCCCC[n+]3ccc(/C=C\c4ccc(OCCCCCCC)cc4)cc3)cc2)cc1`, for which the TGI worked out at 24.6 µM.
Same read-out and setting: the figure for `CC(C)(C)OC(=O)NC(Cc1ccc(O)cc1)C(=O)N1CCCC1C(=O)O` (stereo not drawn) (Boc-Tyr-Pro-OH; configuration not given here) is > 100 µM.
The same measure, in the same setting: then `O=C(O)c1ccc(C2COc3ccc(Cl)cc3C2)cc1` (stereo not drawn), with > 100 µM; and `CC(=O)NC(CCCNC(=O)N(CCCl)N=O)C(=O)NCc1ccccc1` (stereo not drawn), with > 100 µM.
Same read-out and setting: then `c1ccc2c(c1)C1CCCCCC21N1CCOCC1` (stereo not drawn), with > 100 µM; and `COc1cccc(OC)c1C(=O)OCc1ccccc1`, with > 100 µM; and `O=C(CSc1nnc(Cc2ccccc2)o1)Nc1ccccc1`, with > 100 µM.
`Cc1ccc(/C=C/C(=O)C(C)(C)CN2CCCCC2)cc1` returned a TGI of 27.5 µM.
Regarding `O=C1NC(=O)C2C(=O)NC(=O)C1C2c1c(Cl)cccc1Cl` (stereo not drawn), the TGI was > 100 µM.
As to `O=C1OC(Cc2ccccc2)(N2CCCC2=O)C1c1ccccc1` (stereo not drawn), the TGI is > 100 µM.

In a further assay the test system is SW-620 colon. Nature of the assay: NCI anticancer screen, dose series, 48 h.
As for `COc1ccc2c(c1)C(=O)C1CC(=O)CCC21` (stereo not drawn), the TGI is > 100 µM.
The same measure, in the same setting: then `COc1cccc(NC(=O)CSc2nnc(-c3ccc(NC(C)=O)cc3)o2)c1`, with > 100 µM; and `Clc1ccc(Nc2nc3ccccc3nc2-c2cccs2)cc1Cl`, with > 100 µM.
`O=c1nc(NC2CCCCO2)ccn1CCO` (stereo not drawn): the TGI is > 100 µM.
Still for that read-out and setting: the figure for `COC(=O)c1onc(-c2c(OC)cc(OC)cc2OC)c1C(=O)OC` is > 100 µM.
Same read-out and setting: then `CCCP1(=O)C=C(C)C(=C(Cl)Cl)C(C)=C1` (stereo not drawn), with > 100 µM.
Same read-out and setting: the figure for `CC(C)(C)OC(=O)NC(Cc1ccc(O)cc1)C(=O)N1CCCC1C(=O)O` (stereo not drawn) (Boc-Tyr-Pro-OH; configuration not given here) is > 100 µM; for `O=C(O)c1ccc(C2COc3ccc(Cl)cc3C2)cc1` (stereo not drawn) it is > 100 µM; for `CC(=O)NC(CCCNC(=O)N(CCCl)N=O)C(=O)NCc1ccccc1` (stereo not drawn) it is > 100 µM.
Turning to `c1ccc2c(c1)C1CCCCCC21N1CCOCC1` (stereo not drawn), the TGI was > 100 µM.
On to `COc1cccc(OC)c1C(=O)OCc1ccccc1`, for which the TGI is > 100 µM.
Still for that read-out and setting: then `Cc1ccc(/C=C/C(=O)C(C)(C)CN2CCCCC2)cc1`, with 7.99 µM; and `CC(=O)CN(Cc1cc(C)c2c(c1)c1ccccc1n2Cc1ccccc1)S(=O)(=O)c1ccc(C)cc1`, with > 100 µM; and `O=C1NC(=O)C2C(=O)NC(=O)C1C2c1c(Cl)cccc1Cl` (stereo not drawn), with > 47.1 µM.
On the same count and under the same terms, the figure for `O=C1OC(Cc2ccccc2)(N2CCCC2=O)C1c1ccccc1` (stereo not drawn) is > 100 µM.
For `CC(=O)C(CN(CC(C)C)CC(C)C)C(c1ccccc1)c1c(O)c2ccccc2oc1=O` (stereo not drawn), the TGI was > 100 µM.

The next assay has as its system SF-295 CNS. The experiment in a line: NCI anticancer screen, dose series, 48 h.
Regarding `COc1ccc2c(c1)C(=O)C1CC(=O)CCC21` (stereo not drawn), the TGI was > 100 µM.
The same measure, in the same setting: then `COc1cccc(NC(=O)CSc2nnc(-c3ccc(NC(C)=O)cc3)o2)c1`, with > 100 µM; and `Clc1ccc(Nc2nc3ccccc3nc2-c2cccs2)cc1Cl`, with > 100 µM.
On the same count and under the same terms, the figure for `CCn1c2ccccc2c2ccc3c(c21)C(=O)C=CC3=O` is 44.5 µM.
The same measure, in the same setting: then `O=c1nc(NC2CCCCO2)ccn1CCO` (stereo not drawn), with > 100 µM; and `COC(=O)c1onc(-c2c(OC)cc(OC)cc2OC)c1C(=O)OC`, with > 100 µM; and `CCCP1(=O)C=C(C)C(=C(Cl)Cl)C(C)=C1` (stereo not drawn), with > 100 µM.
On to `CCCCCCCOc1ccc(/C=C\c2cc[n+](CCCCCCCC[n+]3ccc(/C=C\c4ccc(OCCCCCCC)cc4)cc3)cc2)cc1`, for which the TGI was > 100 µM.
For `CC(C)(C)OC(=O)NC(Cc1ccc(O)cc1)C(=O)N1CCCC1C(=O)O` (stereo not drawn) (Boc-Tyr-Pro-OH; configuration not given here), the TGI was > 100 µM.
`O=C(O)c1ccc(C2COc3ccc(Cl)cc3C2)cc1` (stereo not drawn): the TGI is > 100 µM.
`CC(=O)NC(CCCNC(=O)N(CCCl)N=O)C(=O)NCc1ccccc1` (stereo not drawn): the TGI is > 100 µM.
Consider `c1ccc2c(c1)C1CCCCCC21N1CCOCC1` (stereo not drawn), for which the TGI is > 100 µM.
`COc1cccc(OC)c1C(=O)OCc1ccccc1`: the TGI is > 100 µM.
Same read-out and setting: the figure for `O=C(CSc1nnc(Cc2ccccc2)o1)Nc1ccccc1` is > 100 µM.
On to `Cc1ccc(/C=C/C(=O)C(C)(C)CN2CCCCC2)cc1`, for which the TGI was 21.3 µM.
Still for that read-out and setting: the figure for `CC(=O)CN(Cc1cc(C)c2c(c1)c1ccccc1n2Cc1ccccc1)S(=O)(=O)c1ccc(C)cc1` is > 100 µM; for `O=C1NC(=O)C2C(=O)NC(=O)C1C2c1c(Cl)cccc1Cl` (stereo not drawn) it is > 100 µM; for `O=C1OC(Cc2ccccc2)(N2CCCC2=O)C1c1ccccc1` (stereo not drawn) it is > 100 µM.
`CC(=O)C(CN(CC(C)C)CC(C)C)C(c1ccccc1)c1c(O)c2ccccc2oc1=O` (stereo not drawn): the TGI was > 100 µM.

In another assay the test system is SK-MEL-5 melanoma. Nature of the assay: NCI anticancer screen, dose series, 48 h.
With `COc1ccc2c(c1)C(=O)C1CC(=O)CCC21` (stereo not drawn), the TGI was > 100 µM.
Take `COc1cccc(NC(=O)CSc2nnc(-c3ccc(NC(C)=O)cc3)o2)c1`: the TGI is > 100 µM.
Same read-out and setting: then `O=c1nc(NC2CCCCO2)ccn1CCO` (stereo not drawn), with > 100 µM; and `COC(=O)c1onc(-c2c(OC)cc(OC)cc2OC)c1C(=O)OC`, with > 100 µM.
Same read-out and setting: then `CCCP1(=O)C=C(C)C(=C(Cl)Cl)C(C)=C1` (stereo not drawn), with 49.1 µM.
On the same count and under the same terms, the figure for `CCCCCCCOc1ccc(/C=C\c2cc[n+](CCCCCCCC[n+]3ccc(/C=C\c4ccc(OCCCCCCC)cc4)cc3)cc2)cc1` is 27.7 µM; for `CC(C)(C)OC(=O)NC(Cc1ccc(O)cc1)C(=O)N1CCCC1C(=O)O` (stereo not drawn) (Boc-Tyr-Pro-OH; configuration not given here) it is > 100 µM.
For the molecule `O=C(O)c1ccc(C2COc3ccc(Cl)cc3C2)cc1` (stereo not drawn), the TGI is > 100 µM.
Same read-out and setting: the figure for `c1ccc2c(c1)C1CCCCCC21N1CCOCC1` (stereo not drawn) is > 100 µM; for `COc1cccc(OC)c1C(=O)OCc1ccccc1` it is > 100 µM; for `O=C(CSc1nnc(Cc2ccccc2)o1)Nc1ccccc1` it is > 100 µM.
The molecule `Cc1ccc(/C=C/C(=O)C(C)(C)CN2CCCCC2)cc1` registered a TGI of 8.36 µM.
Same read-out and setting: the figure for `CC(=O)CN(Cc1cc(C)c2c(c1)c1ccccc1n2Cc1ccccc1)S(=O)(=O)c1ccc(C)cc1` is > 100 µM; for `O=C1NC(=O)C2C(=O)NC(=O)C1C2c1c(Cl)cccc1Cl` (stereo not drawn) it is > 100 µM.
Consider `O=C1OC(Cc2ccccc2)(N2CCCC2=O)C1c1ccccc1` (stereo not drawn), for which the TGI is > 100 µM.
